Assay: gradient 5% acetonitrile 3 min, to 50% in 2 min, to 85% in 15 min, held 3 min, 100 µL/min
Conditions: column: Zorbax Extend-C18 2.1 x 50 mm; eluents: water / acetonitrile, 0.1% formic acid
In short: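 Using water and acetonitrile that each contained 0.1% formic acid, mixtures of ~100 pure standards were separated at 100 μL/min on a Zorbax Extend-C18 column (2.1 × 50 mm, 1.8 μm). The HPLC fed a quadrupole time-of-flight mass spectrometer working in positive and negative ionization mode, with dead and dwell volumes of 40 μL and 900 μL. Data were acquired over 3 months. Retention time was read from computationally picked adduct peaks after manual inspection of each.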

Row | RP-LC retention time [s] | Compound
1 | 637 | O=C(CCc1c(-c2cccc(Cl)c2)nc2ccccn12)NCc1ccco1
2 | 655 | Cc1cc(-c2nnc(NC(=O)c3ccc4c(c3)OCCO4)o2)n(C)n1
3 | 715 | O=C(NCc1ccc2c(c1)OCO2)C1CCN(c2cc(N3CCCCC3)ncn2)CC1
4 | 884 | O=C(Cc1cn(Cc2ccc(Cl)cc2)c2ccccc12)NC1CC1
5 | 832 | O=C(NC1CC1)c1ccc(OCC2CCCN2C(=O)c2ccccc2C(F)(F)F)cc1 (stereo not given)
6 | 798 | CCOC(=O)c1[nH]c(C)c(CCC(=O)N2CCC(C(=O)NCCC(C)C)CC2)c1C
7 | 1000 | COC(=O)c1ccc(NC(=O)N2CCOc3ccc(Cl)cc32)cc1
8 | 1190 | CCc1cc(=O)n(CC(=O)NC(C)CCc2ccccc2)c(-c2ccccc2)n1 (stereo not given)
9 | 550 | COC(=O)c1c(NCCCN2CCCC2)c2cccc(Cl)c2[nH]c1=O
10 | 743 | CCCNC(=O)C1CCCN(c2nc(C)nc3onc(CC)c23)C1 (stereo not given)
11 | 782 | CCOc1ccc(C(=O)Nc2ccc(Nc3ccc(-n4cccn4)nn3)cc2)cc1OCC
12 | 755 | CN1CCCc2cc(C(=O)NC3CCCCCC3)sc21
13 | 750 | CCC(=O)N1CCc2cc(-c3ccc(C(=O)NCCc4c(C)noc4C)cc3)ccc21
14 | 984 | O=C(Nc1ccc(OCc2nnc(-c3ccccc3)o2)cc1)C1COc2ccccc2O1 (stereo not given)
15 | 842 | Cc1cc(NC(=O)CSc2cc(N3CCCC3)ncn2)ccc1Br
16 | 591 | O=C(CCc1ccc2nc[nH]c2c1)Nc1ccc2c(c1)OCCO2
17 | 876 | Cc1ccc(NC(=O)N2CCC(N3CCN(Cc4ccccn4)C(=O)C3=O)CC2)c(Cl)c1
18 | 584 | CCCN1CCN(CCCNc2nc(-c3ccc(Cl)cc3)nc3ccccc23)CC1
19 | 587 | COc1ccc(CN(C)Cc2cc(=O)n3ccc(C)cc3n2)cc1OC
20 | 558 | Cc1nn(C)c2c(=O)n(CC(=O)N3CCN(c4ccccn4)CC3)ccc12
21 | 536 | CN(CCc1ccccn1)C(=O)C1CCN(c2cn[nH]c(=O)c2)CC1
22 | 845 | COc1ccc(NC(=O)N(C)CCc2noc(COc3ccccc3F)n2)cc1

Row | RP-LC retention time [s] | Compound
23 | 781 | CC1(c2nc(C3CC3)no2)CCCN(C(=O)c2n[nH]c3ccccc23)C1 (stereo not given)
24 | 865 | CCn1cc(-c2nc(CC(=O)NCc3ccc(F)cc3)cs2)c2cccnc21
25 | 626 | CCc1ccc2[nH]c3c(c(=O)c2c1)CN(CC(=O)Nc1cccc(C#N)c1)CC3
26 | 937 | Cc1ccc(NC(=O)NCCc2cn(CC(C)C)c3ncccc23)c(Cl)c1
27 | 636 | C[C@@H](NC(=O)c1cccc(F)c1)C(=O)NCc1cscn1
28 | 828 | CCCn1cc(CCNC(=O)Nc2cccc(Cl)c2)c2cccnc21
29 | 601 | CCOC(=O)c1cccc(NC(=O)N2CCc3nc[nH]c3C2)c1
30 | 1110 | Cc1ccsc1C(=O)Nc1cnc(-c2ccc(Cl)cc2)nc1
31 | 784 | CC1(c2noc(C3CC3)n2)CCN(C(=O)C2CCN(S(=O)(=O)N3CCOCC3)CC2)CC1
32 | 607 | O=C(NCc1ccc2c(c1)OCO2)C1=CCN(Cc2ccccc2)CC1
33 | 906 | O=c1n(Cc2ccc(Cl)cc2)nc2ccc(S(=O)(=O)N3CCCC3)cn12
34 | 843 | COCCn1cc(C(=O)NC2CCCC2)c2nn(-c3ccccc3)c(=O)c-2c1
35 | 1080 | COc1ccc(-c2nc(Cc3noc(-c4ccccc4F)n3)c(C)o2)cc1
36 | 872 | CCCN(C)S(=O)(=O)c1cc(-c2nnc(C(C)C)o2)co1
37 | 742 | O=c1c(NCCc2ccccc2)nc2ccncc2n1Cc1ccccc1
38 | 681 | O=C(O)/C=C/C(=O)N1Cc2cc3ccccc3nc2C1
39 | 624 | CCOC(=O)CNC(=O)Cn1cnc2c(oc3ccccc32)c1=O
40 | 723 | Cc1noc(-c2nn(C)c3c2CN(C(=O)Nc2ccc(F)cc2)CC3)n1
41 | 718 | COC(=O)c1cnc2nc(C)ccc2c1Nc1cccc(Br)c1
42 | 809 | O=c1n(CCc2ccccc2)nc2ccc(S(=O)(=O)N3CCOCC3)cn12
43 | 987 | O=C(COc1ccc(Cl)cc1Cl)NCC1CCN(C(=O)Oc2ccccc2)CC1
44 | 775 | CCNc1cc(C)nc(N2CCN(C(=O)c3cccc(Br)c3)CC2)n1

Row | RP-LC retention time [s] | Compound
45 | 1130 | O=C(Cn1nc(-c2ccccc2)c2cc(Cl)ccc21)NC1CCCC1
46 | 920 | CSc1cccc(NC(=O)Cn2c(=O)n(-c3cccc(C)c3)c(=O)c3c2cc(C)n3C)c1
47 | 790 | COC(=O)c1c(C)[nH]c(C(=O)N2CCCC(C(=O)N3CCN(c4ccccc4)CC3)C2)c1C (stereo not given)
48 | 825 | N#Cc1ccc(Cl)cc1NC(=O)C(=O)NCC(O)C1CCCCC1 (stereo not given)
49 | 866 | CCc1noc(-c2ccnc(-n3cnc(C(=O)NCc4ccccc4)c3)c2)n1
50 | 608 | CN(C)c1cc2c(cc1NC(=O)C1CC1)n(C)c(=O)c(=O)n2C
51 | 870 | CCOc1ccccc1NC(=O)C1CCN(S(=O)(=O)c2ccc3[nH]c(=O)sc3c2)CC1
52 | 681 | COc1ccc(CCC(=O)N2CCC(c3cc(N)on3)CC2)cc1
53 | 721 | CCCNC(=O)C1CCCN(c2ccc(SCC(=O)Nc3cc(C)cc(C)c3)nn2)C1 (stereo not given)
54 | 628 | Cc1nc(Nc2ccc(Br)cn2)sc1C(=O)NCCN1CCCC1
55 | 628 | CCc1ccccc1NC(=O)N1CCC(n2cnnc2C2CC2)C1 (stereo not given)
56 | 605 | CCOC(=O)c1sc(NC(=O)CN2CCN(c3ccccn3)CC2)nc1C
57 | 778 | O=C(CN1CCN(Cc2ccc(F)cc2)C(=O)C1=O)N1CCN(c2ccccc2F)CC1
58 | 779 | COc1ccc(C(=O)N2CCN(S(=O)(=O)c3cc4c5c(c3)CCC(=O)N5CCC4)CC2)cc1
59 | 769 | COC(=O)c1cc2c(=O)n(CCc3ccc(OC)c(OC)c3)ccc2nc1C
60 | 910 | Cc1ccc(F)cc1S(=O)(=O)N1CCC(n2c(-c3ccco3)nc3cccnc32)C1 (stereo not given)
61 | 603 | COc1ccc(S(=O)(=O)N2CCN(c3ccc(Nc4ccccn4)nn3)CC2)cc1C
62 | 1050 | COC(=O)c1ccccc1NC1=NS(=O)(=O)C(c2ccc(F)cc2)=C1C
63 | 713 | CCN1CCn2cc(S(=O)(=O)NCc3ccccc3Cl)cc2C1=O
64 | 885 | CCn1cc(C(=O)NC(C)c2ccc(OC)c(OC)c2)c(=O)c2ccc(C)nc21 (stereo not given)
65 | 838 | O=C1COc2cc(S(=O)(=O)N3CCC(C(=O)N4CCc5ccccc5C4)CC3)c(Cl)cc2N1
66 | 963 | CCS(=O)(=O)N1CCCC(Cn2cc(COc3ccc4c(c3)CCC4)nn2)C1 (stereo not given)

Row | RP-LC retention time [s] | Compound
67 | 784 | COc1ccc(-c2nc(NCc3ccc(C)o3)c3ccccc3n2)cc1
68 | 599 | Cc1cc(C(=O)NCC2Cn3cccc3C(=O)N2C)nn1C (stereo not given)
69 | 619 | Cc1ccc2oc(C(=O)NCC(c3ccccc3)N(C)C)cc(=O)c2c1 (stereo not given)
70 | 777 | Cc1ccc(C)c(NC(=O)c2cnn3c2CCCC3)c1
71 | 802 | Cc1ccc(-n2nc(N3CCCN(C(=O)Nc4cccc(C)c4)CC3)ccc2=O)cc1
72 | 754 | Cc1ccc2nc(-c3ccccc3F)c(Nc3ccc(Cl)cc3)n2c1
73 | 653 | CCN(CC)S(=O)(=O)c1ccc2c(c1)N(CC(=O)NCc1cccnc1)C(=O)C1CCCCN21 (stereo not given)
74 | 752 | COc1ccc(CNC(=O)Cn2nc3cc(C)nc(-c4ccccc4)n3c2=O)cc1
75 | 1180 | COc1ccccc1NC(=O)c1oc2ccccc2c1NC(=O)c1c(F)cccc1Cl
76 | 678 | COc1cc(C)c(C)cc1S(=O)(=O)Nc1ccc2c(c1)C(=O)NCCO2
77 | 884 | CCn1cc(-c2nc(CC(=O)Nc3ccc(OC)c(F)c3)cs2)c2cccnc21
78 | 840 | COc1ccc(C(=O)NCc2cccnc2OC)c(OC)n1
79 | 883 | O=C(Cc1cc(-c2cc3ccccc3o2)on1)NCCc1c[nH]c2ccccc12
80 | 1150 | CC(C)Cc1cc(-c2nn3c(-c4ccc(Br)cc4)nnc3s2)n[nH]1
81 | 936 | CCS(=O)(=O)c1nc2ccc(NS(=O)(=O)c3cc(C)cc(C)c3)cc2s1
82 | 569 | CN1CCN(CCNC(=O)C2CCc3sc(C(=O)N4CCCC4)cc3C2)CC1 (stereo not given)
83 | 764 | CCCN(CC1CCOC1)C(=O)Nc1ccc(C)cc1 (stereo not given)
84 | 960 | O=C(Cn1nc2c(Oc3ccccc3)nccn2c1=O)Nc1cc(C(F)(F)F)ccc1Cl
85 | 882 | COc1ccc(OC)c(NC(=O)N2CC=C(c3cn(C)c4ncccc34)CC2)c1
86 | 992 | O=C(Nc1ccc(OC(F)(F)F)cc1)C1CCCN(c2cc(-n3cccn3)ncn2)C1 (stereo not given)
87 | 666 | CN(Cc1cnc2nc(N)nc(N)c2n1)c1ccc(C(=O)NC(CCC(=O)O)C(=O)O)cc1 (stereo not given)
88 | 966 | CC1(C(=O)NCc2ccccc2)CCCN(C(=O)Nc2cccc(Cl)c2)C1 (stereo not given)

Row | Compound | RP-LC retention time [s]
89 | Cc1cc(OCC(=O)N2CCC3(O)CCCCC3C2)c2c3c(c(=O)oc2c1)CCCC3 (stereo not given) | 859
90 | CC(C)c1nnc(-c2ccc(=O)n(CC(=O)N3CCC4(CC3)OCCO4)c2)o1 | 609
